Consider five compounds from ChEMBL document CHEMBL1759977, “Investigation of the mode of binding of a novel series of N-benzyl-4-heteroaryl-1-(phenylsulfonyl)piperazine-2-carboxamides to the hepatitis C virus polymerase” (Bioorg Med Chem Lett, 2011).

For test [1], the system named is Hepatitis C virus. The test is described as follows: Antiviral activity against Hepatitis C virus subtype 1a by replication assay. Type of test: functional, organism-based, Hepacivirus hominis.
The subject of test [2] is Hepatitis C virus. The test is described as follows: Antiviral activity against Hepatitis C virus subtype 1b by replication assay. Type of test: functional, organism-based, Hepacivirus hominis. As to conditions: genotype 1b.
Test [3] relates to Hepatitis C virus. The test is described as follows: Binding affinity to HCV 1b NS5B polymerase. As to conditions: Hepatitis C virus subtype 1b.
The test system of test [4] is Hepatitis C virus subtype 1a. The test is described as follows: Binding affinity to HCV 1a wild type NS5B polymerase.

In general, EC50 refers to the concentration at which the effect is half-maximal. A higher EC50 goes with a need for much substance.

The structures appear in SMILES notation. Calls of active or inactive are those of the source. The calls are words filed in the database; no cut-off is given here.

As to `CCc1ccc(S(=O)(=O)N2CCN(c3cc(OC)nc(OC)n3)CC2C(=O)NCc2ccc(OC)cc2)cc1` (racemic), the values for the EC50 with Hepatitis C virus [1] and with Hepatitis C virus [2] were 25000 nM and 2000 nM, respectively.
On to `CC[C@H](C)NC(=O)c1ccc(N2CCN(S(=O)(=O)c3ccc(OC(F)(F)F)cc3)[C@@H](C(=O)NCc3ccc(OC(F)(F)F)cc3)C2)nn1`, for which the values for the concentration for a half-maximal effect (EC50) in the test with Hepatitis C virus [1] and in the test on Hepatitis C virus [2] were 87 nM and 7 nM, respectively.
Turning to `COc1ccc(CNC(=O)C2CN(c3cc(OC)nc(OC)n3)CCN2S(=O)(=O)c2ccc(OC(F)(F)F)cc2)cc1` (racemic), the EC50 is 8100 nM in the test on Hepatitis C virus [1] and 700 nM in the test on Hepatitis C virus [2]. In addition, the outcome in the test with Hepatitis C virus [3] was Active.
The like results for `COc1ccc(CNC(=O)C2CN(c3ccc(Cl)nn3)CCN2S(=O)(=O)c2ccc(OC(F)(F)F)cc2)cc1` (racemic) were, in that order, 2200 nM, 700 nM and “Active”.
For `O=C(NC1CC1)c1ccc(N2CCN(S(=O)(=O)c3ccc(OC(F)(F)F)cc3)[C@@H](C(=O)NCc3ccc(OC(F)(F)F)cc3)C2)nn1`, the outcome (in test [4]; in the test on Hepatitis C virus [3]) was Active. Further, the EC50 in the test with Hepatitis C virus [1] was determined as 169 nM; in the test with Hepatitis C virus [2] it was 9 nM.
